The values below are quoted from earlier work in paper doi:10.1101/2025.09.30.679517v1 (bioRxiv, 2025).

Structures are written as SMILES.

For the series the following is noted: human, in vivo, po.

On to `COc1ccc2c(c1)[C@]13CCCC[C@@H]1[C@H](C2)N(C)CC3` [dextromethorphan], for which the primary endpoints result is given as “reached all primary endpoints” and the tolerability entry is listed as “well-tolerated by patients”.
